Experimental findings from patent publication US20220280661A1, “GLUCOCORTICOID RECEPTOR RADIOLIGANDS AND METHODS FOR THEIR PREPARATION AND USE” (The Regents of the University of California, priority 2019, published 2022) are described below.

Read-outs that look alike come from different tables or passages of the source.

The target of one series is T1, GR (Mus musculus, UniProt P06537).
T1 construct: from tissue; host or cells: tissues of C57BL6/J mice (intact or adrenalectomized), in vivo
T1 sequence (P06537 1-792): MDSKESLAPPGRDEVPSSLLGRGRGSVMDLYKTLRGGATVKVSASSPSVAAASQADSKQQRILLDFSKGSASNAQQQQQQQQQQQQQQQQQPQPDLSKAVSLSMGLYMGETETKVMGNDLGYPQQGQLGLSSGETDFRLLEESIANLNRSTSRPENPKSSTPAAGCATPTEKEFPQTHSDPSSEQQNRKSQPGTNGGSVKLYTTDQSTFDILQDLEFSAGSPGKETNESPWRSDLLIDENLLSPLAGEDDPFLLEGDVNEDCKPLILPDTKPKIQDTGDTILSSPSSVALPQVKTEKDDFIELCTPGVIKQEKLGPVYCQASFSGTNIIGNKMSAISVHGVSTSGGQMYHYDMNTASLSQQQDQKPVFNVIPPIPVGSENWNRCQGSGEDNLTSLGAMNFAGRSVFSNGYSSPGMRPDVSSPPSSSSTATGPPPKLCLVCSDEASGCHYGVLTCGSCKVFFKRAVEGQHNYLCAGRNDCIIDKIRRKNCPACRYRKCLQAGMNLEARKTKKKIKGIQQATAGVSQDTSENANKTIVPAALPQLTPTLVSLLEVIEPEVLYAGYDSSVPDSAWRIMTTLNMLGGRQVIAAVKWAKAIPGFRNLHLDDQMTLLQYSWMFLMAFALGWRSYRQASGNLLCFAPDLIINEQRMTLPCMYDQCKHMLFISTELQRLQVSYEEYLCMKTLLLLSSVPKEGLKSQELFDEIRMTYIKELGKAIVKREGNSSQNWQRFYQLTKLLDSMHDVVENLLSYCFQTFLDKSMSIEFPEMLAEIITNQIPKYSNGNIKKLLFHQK
Put plainly: 11C radiotracer biodistribution with dexamethasone or Dex-CD blocking. The format is in vivo. The following applies: 20 min after injection. How it is done:
Animal Studies. All animal experiments were performed under the approval of the Institutional Animal Care and Use Committee (IACUC) at UCSF. C57BL6/J mice (4-6 weeks) were purchased from Charles River. All the mice were housed in a dedicated vivarium with free access to food and water. […] Adrenalectomized mice were purchased from Charles River and provided drinking water supplemented with NaCl (aq) per instructions until the time of the tracer biodistribution study.
Biodistribution Studies. Mice were euthanized after radiotracer (7.4-18.5 MBq in 100-150 μL) injection with CO2 (g) asphyxiation and dissected at dedicated time points post injection. The blood and tissues were collected, washed, dried, and weighed. The activity of each tissue was measured with a gamma counter. All data was decay corrected. PRISM software was used to express a percentage (% ID/g) of the injected dose per gram of tissue.
The P value indicates the result of an unpaired, two-tailed Student's t test between the respective treatment group and vehicle (n=5/group).
Table 10 summarizes biodistribution data collected 20 minutes after injection of ^11C-YJH02 among two treatment arms receiving vehicle or one intraperitoneal injection of the water-soluble dexamethasone-cyclodextrin complex at 10 mg/kg one hour prior to radiotracer administration. The P value indicates the result of an unpaired, two-tailed Student's t test between the respective treatment group and vehicle (n=5/group).

The nature of series [1]: Plasma protein binding, rapid equilibrium dialysis, human plasma. Format: in vitro ADME. To be noted: human, plasma, pH 7.4, human plasma. Here is the method: (§1) Plasma Protein Binding Studies. The rapid equilibrium dialysis (RED) device inserts along with a Teflon base plate (Pierce, Rockford, Ill.) were used for the binding studies. The pH of the human or mouse plasma was adjusted to 7.4 prior to the experiment. DMSO stocks (1 mM) were spiked into the plasma to make a final concentration of 2 μM. The spiked plasma solutions (300 μL) were placed into the sample chamber (indicated by the red ring); and 500 μL of PBS buffer, pH 7.4, was placed into the adjacent chamber. The plate was incubated at 37° C. on an orbital shaker (250 rpm) for 4 hours.
(§2) After 4 hours, from the RED plate, aliquots (100 μL) were removed from each side of the insert (plasma and buffer) and dispensed into the 96-well plate. Subsequently, 100 μL of blank plasma was added to the buffer samples and 100 μL of blank buffer was added to all the collected plasma samples. 300 μL of quench solution (50% acetonitrile, 50% methanol, and 0.05% formic acid, warmed up at 37° C.) containing internal standards was added to each well. Plates were sealed, vortexed, and centrifuged at 4° C. for 15 minutes at 4000 rpm. The supernatant was transferred to fresh plates for LC/MS/MS analysis. The sample were analyzed on LC/MS/MS using an AB Sciex API 4000 instrument, coupled to a Shimadzu LC-20AD LC Pump system. Analytical samples were separated using a Waters Atlantis T3 dC18 reverse phase HPLC column (20 mm×2.1 mm) at a flow rate of 0.5 mL/min. The mobile phase consisted of 0.1% formic acid in water (solvent A) and 0.1% formic acid in acetonitrile (solvent B).
(§3) The percentage of test compound bound to protein was calculated by the following equations:
(§4) % Free=(Concentration in buffer chamber/Concentration in plasma chamber)×100%
(In general: Equilibrium dialysis compares concentrations on both sides of a semipermeable membrane.)

The next series concerns plasma protein. The series is described as above. The format is in vitro ADME. To be noted: plasma (rapid equilibrium dialysis device), pH 7.4, human plasma. Here is the method: as §1, §2, §3, §4
The mark [2] stands for this setting: mice given Dex-CD 10 mg/kg intraperitoneal one hour prior to radiotracer.
[3] abbreviates: mice given dexamethasone 50 mg/kg via gavage once daily for three days.

For `CC1=CC(C)(C)Nc2ccc3c(c21)C(Cc1ccc(F)cc1)Oc1cccc(O[11CH3])c1-3` (racemic) [(±)-^11C-YJH08], on GR (setting [2]), the “radiotracer uptake, Adrenal” value is recorded as 5.67 ± 2.6 % ID/g; the “radiotracer uptake, Blood” value amounted to 3.72 ± 0.2 % ID/g; the “radiotracer uptake, Bone” value is listed as 1.95 ± 1.6 % ID/g; the “radiotracer uptake, Brain” value is reported as 1.40 ± 0.2 % ID/g. Also, at GR (setting [2]), the “radiotracer uptake, Brown Fat” value is 8.68 ± 2.4 % ID/g; the “radiotracer uptake, Heart” value is recorded as 5.95 ± 0.7 % ID/g; the “radiotracer uptake, Kidney” value amounted to 4.11 ± 0.4 % ID/g; the “radiotracer uptake, Lg. Int.” value is recorded as 1.38 ± 0.3 % ID/g. At GR (setting [2]), the “radiotracer uptake, Liver” value turned out to be 12.47 ± 0.8 % ID/g; the “radiotracer uptake, Lung” value amounted to 5.09 ± 0.7 % ID/g; the “radiotracer uptake, Muscle” value is reported as 1.16 ± 0.2 % ID/g; the “radiotracer uptake, Pancreas” value came to 3.14 ± 0.3 % ID/g. For the same compound, at GR (setting [2]), the “radiotracer uptake, Sm. Int.” value came out at 15.72 ± 3.2 % ID/g; the “radiotracer uptake, Spleen” value is on record as 5.72 ± 0.7 % ID/g; the “radiotracer uptake, Stomach” value was determined as 1.79 ± 0.8 % ID/g. In addition, at GR (setting [3]), the “radiotracer uptake, Adrenal” value was 9.24 ± 3.6 % ID/g; the “radiotracer uptake, Blood” value was found to be 4.58 ± 1.9 % ID/g; the “radiotracer uptake, Bone” value was 1.06 ± 0.4 % ID/g; the “radiotracer uptake, Brain” value is 1.02 ± 0.3 % ID/g. On GR (setting [3]), the “radiotracer uptake, Brown Fat” value is recorded as 4.58 ± 2.3 % ID/g; the “radiotracer uptake, Heart” value is on record as 3.86 ± 1.6 % ID/g; the “radiotracer uptake, Kidney” value is listed as 2.96 ± 0.9 % ID/g; the “radiotracer uptake, Lg. Int.” value worked out at 1.01 ± 0.5 % ID/g. Moreover, on GR (setting [3]), the “radiotracer uptake, Liver” value is given as 5.22 ± 2.7 % ID/g; the “radiotracer uptake, Lung” value came out at 3.39 ± 1.6 % ID/g; the “radiotracer uptake, Muscle” value is recorded as 0.84 ± 0.4 % ID/g; the “radiotracer uptake, Pancreas” value amounted to 1.52 ± 0.7 % ID/g. Moreover, at GR (setting [3]), the “radiotracer uptake, Sm. Int.” value was 30.24 ± 12.7 % ID/g; the “radiotracer uptake, Spleen” value is 3.71 ± 1.5 % ID/g; the “radiotracer uptake, Stomach” value was determined as 0.71 ± 0.2 % ID/g. At GR (mice given vehicle), the “radiotracer uptake, Adrenal” value was 17.63 ± 2.9 % ID/g; the “radiotracer uptake, Blood” value is 4.82 ± 0.4 % ID/g; the “radiotracer uptake, Bone” value stood at 1.46 ± 0.5 % ID/g; the “radiotracer uptake, Brain” value was found to be 1.98 ± 0.1 % ID/g. Further, on GR (mice given vehicle), the “radiotracer uptake, Brown Fat” value turned out to be 9.52 ± 0.9 % ID/g; the “radiotracer uptake, Heart” value is given as 7.06 ± 0.8 % ID/g; the “radiotracer uptake, Kidney” value is listed as 7.22 ± 0.8 % ID/g; the “radiotracer uptake, Lg. Int.” value stood at 1.70 ± 0.3 % ID/g. Moreover, at GR (mice given vehicle), the “radiotracer uptake, Liver” value amounted to 16.25 ± 0.8 % ID/g; the “radiotracer uptake, Lung” value stood at 6.80 ± 0.7 % ID/g; the “radiotracer uptake, Muscle” value was determined as 1.85 ± 0.1 % ID/g; the “radiotracer uptake, Pancreas” value was determined as 4.64 ± 0.1 % ID/g. Besides, at GR (mice given vehicle), the “radiotracer uptake, Sm. Int.” value turned out to be 28.72 ± 14.5 % ID/g; the “radiotracer uptake, Spleen” value was 7.28 ± 1.8 % ID/g; the “radiotracer uptake, Stomach” value is given as 2.62 ± 1.5 % ID/g.

On to `COc1cccc2c1-c1ccc3c(c1C(Cc1ccc(F)cc1)O2)C(C)=CC(C)(C)N3` (racemic) [YJH08, 5-(4-fluorobenzyl)-10-methoxy-2,2,4-trimethyl-2,5-dihydro-1H-chromeno[3,4-f]quinoline], for which the fraction unbound at 4 h, 2 μM was less than 0.0001 in series [1] (duplicate, read-out: % Bound (converted)) and less than 0.0001 in series [1] (read-out: % Bound Average (converted)). The recovery at 4 h, 2 μM with plasma protein was found to be 97.6%.
